{"source": "patent US11564924B2", "about": "“Pharmaceutical composition formed by combining pyridoxamine compound and thiamine compound” (RENASCIENCE CO., LTD., priority 2014, dated 2023)", "key": {"[1]": {"system": "Wernicke's encephalopathy", "assay": "Wernicke's encephalopathy findings (MRI of the brain, symptoms) during drug administration", "type": "in vivo, human", "description": "Immediately after the patient was suspected of having Wernicke's encephalopathy, oral administration of a thiamine compound (fursultiamine (Takeda Pharmaceutical Company Limited)) at a dose of 75 mg/day was initiated (administered once a day) and continued every day.\nImmediately after the patient was suspected of having Wernicke's encephalopathy, intravenous administration of a thiamine compound (fursultiamine (Takeda Pharmaceutical Company Limited)) (300 mg/day) was performed, and then (from 10 weeks after the start of drug administration), oral administration of the thiamine compound at a dose of 100 to 50 mg/day was continued."}, "vitamin B1": {"system": "vitamin B1", "assay": "Whole blood vitamin B1 amount in schizophrenia patients during drug administration (LC/MS/MS)", "type": "in vivo, human", "description": "Measurement of the amount of vitamin B1 in whole blood (blood collection with heparin) was outsourced to SRL Inc., and the measurement was performed using LC/MS/MS."}, "[2]": {"system": "vitamin B1 in human whole blood", "assay": "In vitro effect on vitamin B1 concentration in human whole blood", "settings": "human whole blood, 5, 50, 500 μg/mL, 37° C.", "excerpt": "In addition, as described in Experiment Example 1 and Experiment Example 2, administration of a pyridoxamine compound increases not only the serum pyridoxamine concentration, but also the serum pyridoxal concentration, and thus, pyridoxamine and pyridoxal were both used as test substances for the investigation.\nBlood was collected from a human using EDTA⋅2K as an anticoagulant. In addition, pyridoxamine dihydrochloride (Sigma-Aldrich Japan) was used as pyridoxamine, and pyridoxal hydrochloride (Nacalai Tesque, Inc.) was used as pyridoxal. They were dissolved at 0.5, 5, and 50 mg/mL in physiological saline to prepare test solutions. 10 μL of each test solution was individually added per mL of the whole blood collected above (test samples). The final concentrations of each test substance in the test samples were 5, 50, 500 μg/mL. Further, a vehicle was prepared by adding 10 μl of physiological saline to 1 ml of the whole blood. The vehicle and the test samples were incubated at 37° C. for 1 hour or 16 hours and then immediately frozen. Measurement of the vitamin B1 concentrations in the whole blood before the start of the incubation to which neither the physiological saline nor any test solution was added (baseline: indicated by “BL” in FIG. 4), and in the vehicle and in each test sample after the incubation, was outsourced to SRL Inc., and the measurement was performed using LC/MS/MS."}}, "data": [{"smiles": "CC(=C(CCO)SSCC1CCCO1)N(C=O)Cc1cnc(C)nc1N", "note": "(stereo in doubt) [fursultiamine]", "values": [{"measurement": "symptom of Wernicke's encephalopathy", "setting": "[1]; patient ID No. 3, 14 weeks after the start of drug administration (8 weeks after the start of the thiamine compound, 75 mg/day oral)", "result": "disappeared"}, {"measurement": "symptom of Wernicke's encephalopathy", "setting": "[1]; patient ID No. 6, 11 weeks after the start of drug administration (3 weeks after the start of the thiamine compound)", "result": "disappeared"}, {"measurement": "whole blood vitamin B1 amount", "setting": "vitamin B1; patient ID No. 3, 12 weeks after the start of drug administration (6 weeks after start of fursultiamine 75 mg/day oral), pyridoxamine compound continued", "result": 135, "unit": "ng/mL"}, {"measurement": "whole blood vitamin B1 amount", "setting": "vitamin B1; patient ID No. 6, 11 weeks after the start of drug administration (3 weeks after start of thiamine compound: 300 mg/day intravenous, then 100 to 50 mg/day oral)", "result": 150, "unit": "ng/mL"}]}, {"smiles": "Cc1ncc(CO)c(C=O)c1O.Cl", "note": "[pyridoxal hydrochloride]", "values": [{"measurement": "change in whole blood vitamin B1 concentration", "setting": "[2]; 1 hour incubation", "result": "decrease in the vitamin B1 concentration in a manner dependent on the concentration of pyridoxal hydrochloride"}, {"measurement": "change in whole blood vitamin B1 concentration", "setting": "[2]; 16 hours incubation", "result": "decrease in the vitamin B1 concentration in a manner dependent on the concentration of pyridoxal hydrochloride"}]}]}
